Like-named read-outs stand apart in the source and are kept apart here.
Columns and labels:
[1] = test system: stimulated primary human T cells; experiment: T cell proliferation assay (rescue of proliferation in the presence of ATP); type: cell-based
Procedure: The aim of this study was to determine the potency of equilibrative nucleoside transporter 1 (ENT1) inhibitors to rescue proliferation by stimulated primary human T cells incubated in the presence of 100 uM Adenosine triphosphate (ATP), in baseline conditions (condition A) or in the presence of various proteins known to bind small molecules (condition B)
Condition B: X-VIVO15, 2% Human Serum Albumine (HSA) and 0.1% α-1-Acid Glycoprotein (AAG)
Cryopreserved purified human CD3+ T cells were thawed and washed twice with RPMI1640 medium, UltraGlutamine containing 10% hiFBS.
Cells were suspended in PBS containing 10% hiFBS. Cells were stained with CFSE by adding 2 μM solution in PBS, to get a final 1 μM CFSE solution. Cells were incubated while rotating for 5 minutes. Reaction was stopped by adding PBS with 10% FBS and cells were centrifuged for 5 minutes at 1500 rpm.
Cells were resuspended at 1.6×10^6 cells/mL, either in X-VIVO15 medium or in 4% Human Serum Albumin and 0.2% α-1-Acid Glycoprotein. 50 μL of cell suspension (8×10^4 T cells) was added to wells of sterile round-bottom 96-well plates. Cells were activated by adding 50 μL of anti-CD3 anti-CD28 coated microbeads, suspended either in XVIVO-15 medium or in 4% HSA and 0.2% α-1-Acid Glycoprotein, at a ratio of one microbead per two cells.
Serial dilutions of the ENT1 inhibitors were prepared in X-VIVO15 from 10 mM stock solutions in DMSO, and 50 μL was added to the wells.
ATP powder was diluted in X-VIVO15, and 50 μL of this compound was added to the wells to reach a final assay concentration of 100 μM. Final volume of 200 μL.
The experiments were also performed in 384 well plates—all volumes reduced by a factor of 4 (12.5 μL) with a final volume of 50 μL.
Experiments were performed in duplicate. The cells were placed in a 37° C. humidified tissue culture incubator with 5% CO2 for 72 hours for 96 well plates, 96 hours for 384 well plates After 72 or 96 hours, proliferation was measured determined by CFSE dilution via flow cytometry.

human ENT1 = biological target: T1, human ENT1 (Homo sapiens, UniProt Q99808); experiment: ENT1 binding assay (competition with Sahenta-DY647); conditions: JAR cells expressing ENT1; competition with Sahenta-DY647 (100 nM); 4° C.
T1 construct: JAR cells expressing ENT1 were bought from ATCC® (HTB-144TM); host or cells: JAR cells (human choriocarcinoma line, own knowledge)
T1 sequence (Q99808 1-456): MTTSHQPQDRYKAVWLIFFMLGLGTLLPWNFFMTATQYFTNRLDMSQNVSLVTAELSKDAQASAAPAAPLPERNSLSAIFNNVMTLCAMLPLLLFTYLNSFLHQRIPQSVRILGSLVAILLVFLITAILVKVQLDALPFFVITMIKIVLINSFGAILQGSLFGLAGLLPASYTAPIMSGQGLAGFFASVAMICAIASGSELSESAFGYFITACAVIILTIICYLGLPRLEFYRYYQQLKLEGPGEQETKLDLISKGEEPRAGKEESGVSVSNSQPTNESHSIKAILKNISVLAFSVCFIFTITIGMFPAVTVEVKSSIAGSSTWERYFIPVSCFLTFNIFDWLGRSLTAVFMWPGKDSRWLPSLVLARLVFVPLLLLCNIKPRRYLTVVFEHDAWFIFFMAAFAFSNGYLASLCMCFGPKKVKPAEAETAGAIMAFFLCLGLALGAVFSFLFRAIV
Procedure: The present assay aims at showing that the compounds of the present disclosure can bind to human ENT1. The principle of the assay is a competition between the compounds of this present disclosure and Sahenta-DY647, an ENT1 inhibitor that emits fluorescence (Ex=630 nm, Em=670 nm). By measuring the fluorescence at the end of the assay we could assess the binding potency of the compounds of the present disclosure.
JAR cells expressing ENT1 were bought from ATCC® (HTB-144TM). Cells were cultured in RPMI 1640 medium (LONZA®, #BE12-702F/U1) supplemented with 10% FBS (GIBCO®, #10270-106), 10 mM Hepes (LONZA®, #BE17-737E), 1 mM Sodium Pyruvate (LONZA®, #BE13-115E) and 2% Penicillin/Streptomycin (LONZA®, #DE17-603E) at 37° C. and 5% CO2. The assay was conducted on the following buffer: HBSS (LONZA®, #LO-527F) supplemented with 10 mM Hepes (LONZA®, #BE17-737E) and 0.1% BSA (Miltenyi®, #130-091-376) on the day of the assay.
JAR cells were resuspended in the described buffer. Compounds of the present disclosure and Sahenta-DY647 were diluted 200× in the described buffer.
A total of 50 000 cells were pre-incubated for 30 min at 4° C. with the compounds of the present disclosure before adding the corresponded IC90 of Sahenta-DY647 (100 nM) and incubate once more for 30 min at 4° C. The total volume of the reaction was 100 μL (50 μL of cells, 25 μL of the compounds of the present disclosure and 25 μL of Sahenta-DY647) in a 96 well plate, U-bottom (Greiner®, #650-180). The plates were washed 2× by centrifugation (4 min, 400 rcf at 4° C.) in the same buffer. Cells were re-suspended in 70 μL of the buffer and 50 μL was transferred to a Black 384 Optiplate (PerkinElmer®, #6007279). Fluorescence (Ex=630 nm, Em=670 nm) was acquired on a Spectramax i3x (Molecular Devices®).

[2] = Condition B: X-VIVO15, 2% Human Serum Albumine (HSA) and 0.1% α-1-Acid Glycoprotein (AAG), 100 μM ATP, read-out: (2) T Cell proliferation (Condition B) IC50
[3] = Homo sapiens, Condition A: X-VIVO15, 100 μM ATP, read-out: T Cell proliferation (Condition A) IC50

For COc1cc2cc(c1OC)OCCCC(OC(=O)CCC(=O)N1CCOCC1)CCN1CCCN(CCCNC2=O)CC1 (centres unmarked) [Compound 20], the IC50 [1, 2] was over 500 nM, the IC50 [1, 3] was 1 to 20 nM and the IC50 (human ENT1) was 20 to 500 nM.
For COc1cc(C(=O)OC2CCCOc3cc(cc(OC)c3OC)C(=O)NCCCN3CCN(CC2)CC3=O)cc(OC)c1OC (centres unmarked) [Compound 30], the IC50 [1, 2] was 20 to 500 nM, the IC50 [1, 3] was under 1 nM and the IC50 (human ENT1) was 1 to 20 nM.
For COc1cc2cc(c1OC)OCCCCCCN1CCCN(CCCOC2=O)CC1 [Compound 32], the IC50 (human ENT1) was 500 to 1000 nM.
COc1cc2cc(c1OC)OCCCC(OC(=O)N1CCCCC1)CCN1CCCN(CCCOC2=O)CC1 (centres unmarked) [Compound 27] gave an IC50 (human ENT1) of 1 to 20 nM.
In the case of COc1cc2cc(c1OC)OCCCC(n1cc(-c3ccccc3)cn1)CCN1CCCN(CCCOC2=O)CC1 (centres unmarked) [Compound 29], the IC50 [1, 2] is reported as 20 to 500 nM, the IC50 [1, 3] is reported as under 1 nM and the IC50 (human ENT1) is reported as 1 to 20 nM.
For COc1cc2cc(c1OC)OCCCC(OC(=O)c1cnn(C)c1)CCN1CCCN(CCCOC2=O)CC1 (centres unmarked) [Compound 9], the IC50 [1, 2] was 1 to 20 nM, the IC50 [1, 3] was under 0.1 nM and the IC50 (human ENT1) was 1 to 20 nM.
In the case of COc1cc(C(=O)OC2CCCOc3cc(cc(OC)c3OC)COCCN(C)C3CCN(CC2)CC3)cc(OC)c1OC (centres unmarked) [Compound 41], the IC50 [1, 2] is reported as 20 to 500 nM, the IC50 [1, 3] is reported as under 1 nM and the IC50 (human ENT1) is reported as 1 to 20 nM.
Molecule COc1cc(C(=O)OC2CCCOc3cc(cc(OC)c3OC)COCCOCCN(C)CC2)cc(OC)c1OC (centres unmarked) [Compound 43] has an IC50 [1, 2] of 20 to 500 nM, an IC50 [1, 3] of under 1 nM and an IC50 (human ENT1) of 1 to 20 nM.
COc1cc2cc(c1OC)OCCCC(Oc1ccn(C)n1)CCN1CCCN(CCCOC2=O)CC1 (centres unmarked) [Compound 25] was tested, and the IC50 (human ENT1) was 500 to 1000 nM.
COc1cc2cc(c1OC)OCCCC(OC(=O)N1CCOCC1)CCN1CCCN(CCCOC2=O)CC1 (centres unmarked) [Compound 26] gave an IC50 (human ENT1) of 1 to 20 nM.
Molecule COc1cc2cc(c1OC)OCCCC(O/N=C/c1ccccc1)CCN1CCCN(CCCOC2)CC1 (centres unmarked) [Compound 1] has an IC50 (human ENT1) of 20 to 500 nM.
Work on COc1cc2cc(c1OC)OCCCC(OCc1ccccc1)CCN1CCCN(CCCOC2=O)CC1 (centres unmarked) [Compound 35] yielded an IC50 (human ENT1) of 500 to 1000 nM.
In the case of COc1cc2cc(c1OC)OCCCC(OC(=O)c1cnnn1C)CCN1CCCN(CCCOC2=O)CC1 (centres unmarked) [Compound 7], the IC50 (human ENT1) is reported as 1 to 20 nM.
Work on COc1cc(C(=O)OCCCN2CCCN(CCCOC(=O)c3cc(OC)c(OC)c(OC)c3)CC2)cc(OC)c1OC [Dilazep, dilazep, reference compound] yielded an IC50 [1, 2] of 20 to 500 nM and an IC50 [1, 3] of 1 to 20 nM.
For COc1cc(C(=O)O[C@@H]2CCOc3cc(cc(OC)c3OC)C(=O)NCCCN3CCCN(CC2)CC3)cc(OC)c1OC [Compound 39], the IC50 (human ENT1) was 20 to 500 nM.
COc1cc(C(=O)OC2CCCOc3cc(cc(OC)c3OC)C(=O)NCCC(=O)N3CCN(CC2)CC3)cc(OC)c1OC (centres unmarked) [Compound 31] gave an IC50 (human ENT1) of 20 to 500 nM.
Cn1nnc2cc(C(=O)OC3CCCOc4cc(cc(Cl)c4Cl)C(=O)NCCCN4CCCN(CC3)CC4)ccc21 (centres unmarked) [Compound 34] showed an IC50 (human ENT1) of 500 to 1000 nM.
In the case of COc1cc(C(=O)OC2CCCOc3cccc(c3)-c3cn(nn3)CCCN3CCCN(CC2)CC3)cc(OC)c1OC (centres unmarked) [Compound 36], the IC50 (human ENT1) is reported as 20 to 500 nM.
COc1cc(C(=O)O[C@H]2CCCOc3cc(cc(OC)c3OC)COCCCN3CCCN(CC2)CC3)cc(OC)c1OC (single isomer, unassigned) [Compound 5] showed an IC50 (human ENT1) of 20 to 500 nM.

From patent US20240368183A1, “Macrocyclic Compounds Having ENT1 Inhibiting Activity” (iTeos Belgium SA, priority 2021, published 2024)
